Each molecule was assayed on platelet aggregation (assay: Platelet aggregation-inhibiting action (TAI), collagen-induced, turbidometric, in platelet-rich citrate plasma). Settings: Homo sapiens, 0.1 h, range of the minimum effective concentration, PRP from healthy donors, 37° C., 6 minutes, read-out: TAI threshold concentration.
Assay type: cell-based
Experimental: Blood from healthy donors of both sexes was used for the determination of the platelet aggregation-inhibiting action. As an anticoagulant, 9 parts of blood were admixed to one part of 3.8% strength aqueous sodium citrate solution. Platelet-rich citrate plasma (PRP)^1 is obtained from this blood by means of centrifugation (Jurgens/Beller, Klinische Methoden der Blutgerinnungsanalyse (Clinical Methods of Blood Coagulation Analysis); Thieme Verlag, Stuttgart, 1959).
For these investigations, 0.8 ml of (PRP)^1 and 0.1 ml of the active compound solution were preincubated in a water bath at 37° C. The platelet aggregation was then determined by the turbidometric method (Born, G.V.R., J. Physiol. (London), 162, 67, 1962) in an aggregometer at 37° C. (Therapeutische Berichte 47, 80-86, 1975). To this end, 0.1 ml of collagen, an aggregation-inducing agent, was added to the preincubated sample. The change in the optical density in the sample of the (PRP) was recorded during a period of 6 minutes and the result was determined after 6 minutes. To do this, the percentage inhibition was calculated compared to the control.
The range of the minimum effective concentration was given as the threshold concentration.
For `O=C(O)CCCCON=C(c1cccnc1)c1cccc(NS(=O)(=O)c2ccc(Cl)cc2)c1` (mixture of isomers) [Example I, (E/Z)-5-[[[3-Pyridinyl-3-(4-chlorophenylsulphonamido)phenyl]methylene]iminooxy]pentanecarboxylic acid], the minimal effective concentration was 0.3 to 1 µg/mL. `O=C(O)CCCCCCON=C(c1cccnc1)c1cccc(NS(=O)(=O)c2ccc(Cl)cc2)c1` (mixture of isomers) [XIII, (E/Z)-7-[[[3-Pyridinyl-3-(4-chlorophenylsulphonamido)phenyl]methylene]iminooxy]heptane-carboxylic acid] was tested, and the minimal effective concentration was > 10 µg/mL. `O=C(O)CCCCCC(c1cccnc1)c1cccc(NS(=O)(=O)c2ccc(Cl)cc2)c1` (stereo not drawn) [XXVI] was tested, and the minimal effective concentration was 0.1 to 0.3 µg/mL. `O=C(O)CCCCC=C(c1cccnc1)c1cccc(NS(=O)(=O)c2ccc(Cl)cc2)c1` (mixture of isomers) [Example XV] was tested, and the minimal effective concentration was 3 to 10 µg/mL. With `O=C(O)CCCCCON=C(c1cccnc1)c1cccc(NS(=O)(=O)c2ccc(Cl)cc2)c1` [XII] the minimal effective concentration was 1 to 3 µg/mL. Molecule `O=C(O)CCCCON=C(c1cccnc1)c1cccc(NS(=O)(=O)c2ccc(F)cc2)c1` [II] has a minimal effective concentration of 1 to 3 µg/mL.
